# In EP4043466B1, “PRC2 INHIBITORS” (Mirati Therapeutics, Inc., priority 2018, dated 2019):
# What was measured:
# Karpas 422 cells = experiment: Karpas 422 cell viability, CTG (Cell Titre Glo) assay; format: cell-based, human; settings: Homo sapiens; Inhibition of proliferation of Karpas 422 cells (EZH2 Y641N); viability measured Day 4, Day 7 or Day 11, time point of the tabulated values not stated
# In short: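 Karpas 422 cells (EZH2 Y641N, DLBCL) plated at 1000 cells/well in RPMI with 20% FBS, exposed to compound 10µM down to 1.5nM in 3-fold steps at 37 °C. Viability by CellTiter-Glo on Days 4, 7 and 11; Day 11 plates re-fed with fresh medium and compound on Day 7. IC50 per time point.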
# [1] = biological target: purified human, His-tagged PRC2 complex (Homo sapiens, UniProt O75530+Q15910); experiment: Hot Spot HMT assay: inhibition of PRC2 enzymatic activity (transfer of tritiated methyl from SAM to core histone, filter binding); format: biochemical; settings: Inhibition of PRC2-mediated enzymatic activity; 10 nM PRC2 complex, 0.05 mg/ml core histone H3, 1 uM 3H-SAM, 1 hr at 30°C
# purified human, His-tagged PRC2 complex, sequence (Q15910 whole entry): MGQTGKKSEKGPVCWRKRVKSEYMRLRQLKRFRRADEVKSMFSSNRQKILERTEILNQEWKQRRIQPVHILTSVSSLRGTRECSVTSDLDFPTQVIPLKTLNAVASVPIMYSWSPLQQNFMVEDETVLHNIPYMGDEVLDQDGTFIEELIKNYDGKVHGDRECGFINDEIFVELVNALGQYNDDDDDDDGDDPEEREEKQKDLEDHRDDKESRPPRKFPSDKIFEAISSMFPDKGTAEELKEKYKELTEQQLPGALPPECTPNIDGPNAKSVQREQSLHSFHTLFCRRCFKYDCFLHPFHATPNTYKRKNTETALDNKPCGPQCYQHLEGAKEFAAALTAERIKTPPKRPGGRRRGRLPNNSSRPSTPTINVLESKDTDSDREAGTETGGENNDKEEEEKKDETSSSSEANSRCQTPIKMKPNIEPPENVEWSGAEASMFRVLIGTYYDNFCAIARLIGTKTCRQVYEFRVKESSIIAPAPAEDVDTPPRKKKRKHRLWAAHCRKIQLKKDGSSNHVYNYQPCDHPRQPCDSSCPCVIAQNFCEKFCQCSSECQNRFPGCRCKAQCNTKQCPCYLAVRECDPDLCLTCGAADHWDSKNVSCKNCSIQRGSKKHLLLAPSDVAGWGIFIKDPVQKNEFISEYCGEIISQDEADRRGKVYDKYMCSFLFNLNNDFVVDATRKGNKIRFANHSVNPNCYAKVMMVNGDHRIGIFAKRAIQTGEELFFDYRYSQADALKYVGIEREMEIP
# purified human, His-tagged PRC2 complex, sequence (O75530 whole entry): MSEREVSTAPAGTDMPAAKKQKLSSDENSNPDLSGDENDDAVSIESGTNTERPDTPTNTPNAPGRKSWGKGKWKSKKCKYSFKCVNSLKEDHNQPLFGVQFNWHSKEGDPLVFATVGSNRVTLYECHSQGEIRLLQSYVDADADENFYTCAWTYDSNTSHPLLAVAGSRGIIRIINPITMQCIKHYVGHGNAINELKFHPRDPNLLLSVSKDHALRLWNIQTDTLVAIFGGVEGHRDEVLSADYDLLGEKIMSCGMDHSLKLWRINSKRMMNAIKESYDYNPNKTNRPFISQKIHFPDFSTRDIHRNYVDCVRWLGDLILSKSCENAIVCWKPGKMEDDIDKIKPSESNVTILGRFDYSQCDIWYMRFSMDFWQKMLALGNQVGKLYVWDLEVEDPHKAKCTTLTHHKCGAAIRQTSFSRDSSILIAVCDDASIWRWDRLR
# purified human, His-tagged PRC2 complex, sequence (Q15022 whole entry partner): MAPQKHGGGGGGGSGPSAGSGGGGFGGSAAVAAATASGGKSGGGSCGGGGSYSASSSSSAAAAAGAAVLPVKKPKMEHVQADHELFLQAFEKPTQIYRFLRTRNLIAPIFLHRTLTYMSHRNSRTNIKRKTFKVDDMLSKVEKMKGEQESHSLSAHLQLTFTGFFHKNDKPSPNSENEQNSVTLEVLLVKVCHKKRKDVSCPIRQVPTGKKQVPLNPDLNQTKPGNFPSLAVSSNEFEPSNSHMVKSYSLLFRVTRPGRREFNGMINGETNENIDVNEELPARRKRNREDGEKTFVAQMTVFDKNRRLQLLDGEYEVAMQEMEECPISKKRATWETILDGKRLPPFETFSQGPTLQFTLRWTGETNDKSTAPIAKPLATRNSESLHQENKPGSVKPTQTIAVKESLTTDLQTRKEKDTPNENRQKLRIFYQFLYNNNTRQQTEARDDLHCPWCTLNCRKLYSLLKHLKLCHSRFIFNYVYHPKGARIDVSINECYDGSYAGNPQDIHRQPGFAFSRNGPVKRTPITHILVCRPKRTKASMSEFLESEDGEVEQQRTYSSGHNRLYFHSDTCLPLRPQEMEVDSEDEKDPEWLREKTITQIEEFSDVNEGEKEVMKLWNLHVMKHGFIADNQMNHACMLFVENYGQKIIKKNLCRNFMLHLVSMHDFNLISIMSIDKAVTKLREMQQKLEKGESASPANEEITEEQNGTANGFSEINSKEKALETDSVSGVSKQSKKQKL
# purified human, His-tagged PRC2 complex, sequence (Q6ZN18 whole entry partner): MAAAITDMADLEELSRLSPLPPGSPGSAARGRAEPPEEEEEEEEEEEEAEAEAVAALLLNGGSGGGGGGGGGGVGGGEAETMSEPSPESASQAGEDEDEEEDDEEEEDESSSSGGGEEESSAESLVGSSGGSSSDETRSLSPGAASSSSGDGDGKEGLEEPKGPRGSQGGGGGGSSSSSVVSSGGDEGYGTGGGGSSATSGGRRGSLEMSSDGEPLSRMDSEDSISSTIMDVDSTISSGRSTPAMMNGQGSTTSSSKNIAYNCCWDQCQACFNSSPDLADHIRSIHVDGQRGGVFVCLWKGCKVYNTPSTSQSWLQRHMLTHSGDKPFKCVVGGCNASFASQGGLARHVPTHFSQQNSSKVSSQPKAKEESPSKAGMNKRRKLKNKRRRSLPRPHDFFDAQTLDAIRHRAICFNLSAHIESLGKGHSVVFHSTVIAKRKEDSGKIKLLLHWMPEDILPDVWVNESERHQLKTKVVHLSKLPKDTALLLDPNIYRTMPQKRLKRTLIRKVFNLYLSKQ
# purified human, His-tagged PRC2 complex, sequence (Q09028 whole entry partner): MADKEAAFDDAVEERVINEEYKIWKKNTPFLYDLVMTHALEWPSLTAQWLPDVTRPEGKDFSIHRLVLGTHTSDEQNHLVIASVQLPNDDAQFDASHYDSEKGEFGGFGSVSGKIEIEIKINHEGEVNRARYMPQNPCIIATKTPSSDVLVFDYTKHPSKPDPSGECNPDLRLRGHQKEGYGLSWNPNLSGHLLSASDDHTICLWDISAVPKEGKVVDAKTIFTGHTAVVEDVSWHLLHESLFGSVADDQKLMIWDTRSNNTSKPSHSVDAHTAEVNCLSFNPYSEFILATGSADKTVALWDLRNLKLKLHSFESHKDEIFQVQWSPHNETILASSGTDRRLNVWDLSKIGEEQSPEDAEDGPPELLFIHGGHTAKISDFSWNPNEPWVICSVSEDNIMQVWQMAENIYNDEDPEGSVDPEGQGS
# In short: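 Five-subunit complex (His-EZH2, Flag-EED, His-SUZ12, His-AEBP2, His-RbAp48) at 10 nM with 0.05 mg/ml core histone H3, pH 8 Tris buffer, 1% DMSO; 20 min compound pre-incubation at 30°C. Started with 1 uM [3H]-SAM, 1 hr at 30°C; tritiated H3 counted by scintillation. Compounds diluted from 1.0 µM top concentration.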
# [2] = test system: PRC2-mediated histone H3 methylation; experiment: Tri-Methyl Histone H3 (Lys 27) Sandwich ELISA in Pfeiffer cells: inhibition of PRC2-mediated histone H3 methylation; format: cell-based, human; settings: Homo sapiens; Inhibition of EZH2-mediated histone H3 trimethylation; Pfeiffer cells (EZH2 A677G), 96 hours incubation
# Excerpt: The Pfeiffer cell line was established from a […] from a patient having metastatic diffuse large B-cell lymphoma (DLBCL). This cell line expresses a mutant form of the EZH2 enzyme (A677G) that results in enhanced EZH2 activity leading to increased methylation of histone H3 Lys27. Increased trimethylation of histone H3 Lys27 is believed to be implicated in tumorgenesis and poor clinical prognosis in lymphomas (McCabe et al., (2012) Nature 492:108-112).
# Inhibition of PRC2-mediated histone H3 methylation by compounds of Formula (I) was measured by ELISA using a Tri-Methyl Histone H3 (Lys 27) Sandwich ELISA Kit (Cell Signaling Tech #7866C) in accordance with the manufacturer's instructions. Briefly, Pfeiffer cells were cultured in RPMI medium supplemented with 10% fetal bovine serum and 1% penicillin and 1% streptomycin in 96 well culture plates at 37°C to a density of 8000 cells/90µl/well and the cells were harvested. A series of 3-fold serial dilutions of each test compound of Formula (I) were prepared in RPMI medium and added to the cells at final concentrations ranging from 1µM to 0.15 nM. The plates were incubated at 37°C for 96 hours.
# After incubation, the cells were pelleted by centrifugation in a pre-cooled 4°C rotor at 1, 100 rpm for 10 min and the supernatant was removed by aspiration. The cell pellet was resuspended in 55µl of Lysis Buffer (0.4M HCl) and incubated on ice with periodic shaking for 30 minutes. The lysed cells were subjected to centrifugation at 4, 200 rpm for 10 min at 4°C and the supernatant containing acid-soluble proteins was collected and the remainder discarded. The acid-soluble proteins were brought to a neutral pH by the addition of 20 µl of Neutralization Buffer (1 M Sodium phosphate, dibasic (pH 12.5), 2.5 mM DTT and 1 mM PMSF) and the neutralized lysates were analyzed by ELISA.
# A 65 µl aliquot of each cell lysate was added to a well of a microwell strip, the microwells were sealed using tape and incubated either at 37°C for two hours or at 4°C overnight. After incubation, the tape was removed at the microwells were washed four times using 200 µl of 1X Wash Buffer. To each washed microwell, a 100 µl aliquot of an antitrimethyl histone H3 Lys27 Detection Antibody solution was added and the microwells were incubated at 37°C for one hour. The Detection Antibody solution was removed by aspiration and the wells were washed four times each using 200 µl of 1X Wash Buffer.
# A 100 µl aliquot of an HRP-linked secondary antibody was added to each well, the wells were sealed with tape and incubated at 37°C for 30 min. The HRP-linked secondary antibody solution was removed by aspiration and the wells were washed four times using 200 µl of 1X Wash Buffer. A 100 µl aliquot of a TMB substrate was added to each well, the wells were sealed with tape and incubated at 37°C for 10 min or 25°C for 30 min. The reaction was stopped by the addition of 100 µl aliquot of a STOP solution and the plate was shaken briefly. The degree of histone H3 trimethylation was determined using a spectrophotometric readout by measuring the absorbance at 450 nm and then calculating the amount of trimethylated histone H3. A = ≤100 nM; B = >100 nM - ≤500 nM; C = >500 nM and N.D. = not determined.
Compound,IC50 (Karpas 422 cells) [nM],IC50 [1] [nM],IC50 [2] [nM]
"Cc1nn(C[C@@H](C)O)c(C)c1-c1cnc(NCc2c(F)ccc3c2CCO3)n2cc(C#N)nc12 [Example 66, (R)-5-(((5-fluoro-2,3-dihydrobenzofuran-4-yl)methyl)amino)-8-(1-(2-hydroxypropyl)-3,5-dimethyl-1H-pyrazol-4-yl)imidazo[1,2-c]pyrimidine-2-carbonitrile]",≤ 250,100 to 500,100 to 500
"Cc1ccc(-c2cnc(NCc3c(F)ccc4c3CCO4)n3cc(C#N)nc23)c(C)n1 [Example 67, 8-(2,6-dimethylpyridin-3-yl)-5-(((5-fluoro-2,3-dihydrobenzofuran-4-yl)methyl)amino)imidazo[1,2-c]pyrimidine-2-carbonitrile]",≤ 250,< 100,≤ 100
"N#Cc1cn2c(NCc3c(F)ccc4c3CCO4)ncc(C3CC3)c2n1 [Example 77, 8-cyclopropyl-5-(((5-fluoro-2,3-dihydrobenzofuran-4-yl)methyl)amino)imidazo[1,2-c]pyrimidine-2-carbonitrile]",> 500,100 to 500,> 500
"Cc1cc(-c2cnc(NCc3c(F)ccc4sccc34)n3cc(C#N)nc23)n(C)n1 [Example 81, 8-(1,3-dimethyl-1H-pyrazol-5-yl)-5-(((5-fluorobenzo[b]thiophen-4-yl)methyl)amino)imidazo[1,2-c]pyrimidine-2-carbonitrile]",> 500,> 500,> 500
"Cc1c(-c2cnc(NCc3c(F)ccc4c3CCO4)n3cc(C#N)nc23)ccc(CN(C)C)c1F [Example 85, 8-(4-((dimethylamino)methyl)-3-fluoro-2-methylphenyl)-5-(((5-fluoro-2,3-dihydrobenzofuran-4-yl)methyl)amino)imidazo[1,2-c]pyrimidine-2-carbonitrile]",≤ 250,< 100,≤ 100
"Cc1ncccc1-c1cnc(NCc2c(F)ccc3c2CCO3)n2cc(C#N)nc12 [Example 105, 5-(((5-fluoro-2,3-dihydrobenzofuran-4-yl)methyl)amino)-8-(2-methylpyridin-3-yl)imidazo[1,2-c]pyrimidine-2-carbonitrile]",≤ 250,< 100,≤ 100
"Cn1nc(C2CC2)cc1-c1cnc(NCc2c(F)ccc3c2CCO3)n2cc(C#N)nc12 [Example 144, 8-(3-cyclopropyl-1-methyl-1H-pyrazol-5-yl)-5-(((5-fluoro-2,3-dihydrobenzofuran-4-yl)methyl)amino)imidazo[1,2-c]pyrimidine-2-carbonitrile]",≤ 250,< 100,100 to 500
"Cc1nc(-c2cnc(NCc3c(F)ccc4c3CCO4)n3cc(C#N)nc23)c(C)s1 [Example 145, 8-(2,5-dimethylthiazol-4-yl)-5-(((5-fluoro-2,3-dihydrobenzofuran-4-yl)methyl)amino)imidazo[1,2-c]pyrimidine-2-carbonitrile]",≤ 250,100 to 500,100 to 500
"N#Cc1cn2c(NCc3c(F)ccc4c3CCO4)ncc(-c3ccccn3)c2n1 [Example 146, 5-(((5-fluoro-2,3-dihydrobenzofuran-4-yl)methyl)amino)-8-(pyridin-2-yl)imidazo[1,2-c]pyrlmldlne-2-carbonltrlle]",≤ 250,100 to 500,100 to 500

# Continued, values first:
IC50 (Karpas 422 cells) [nM],IC50 [1] [nM],IC50 [2] [nM],Compound
≤ 250,< 100,100 to 500,"N#Cc1cn2c(NCc3c(F)ccc4c3CCO4)ncc(-c3cnccn3)c2n1 [Example 68, 5-(((5-fluoro-2,3-dihydrobenzofuran-4-yl)methyl)amino)-8-(pyrazin-2-yl)imidazo[1,2-c]pyrimidine-2-carbonitrile]"
≤ 250,< 100,100 to 500,"Cc1ncc(-c2cnc(NCc3c(F)ccc4c3CCO4)n3cc(C#N)nc23)cn1 [Example 69, 5-(((5-fluoro-2,3-dihydrobenzofuran-4-yl)methyl)amino)-8-(2-methylpyrimidin-5-yl)imidazo[1,2-c]pyrimidine-2-carbonitrile]"
≤ 250,< 100,100 to 500,"Cc1ncc(-c2cnc(NCc3c(F)ccc4c3CCO4)n3cc(C#N)nc23)c(C)n1 [Example 71, 8-(2,4-dimethylpyrimidin-5-yl)-5-(((5-fluoro-2,3-dihydrobenzofuran-4-yl)methyl)amino)imidazo[1,2-c]pyrimidine-2-carbonitrile]"
≤ 250,< 100,≤ 100,"N#Cc1cn2c(NCc3c(F)ccc4c3CCO4)ncc(-c3ccc(CN4CCCC4)cc3)c2n1 [Example 74, 5-(((5-fluoro-2,3-dihydrobenzofuran-4-yl)methyl)amino)-8-(4-(pyrrolidin-1 - ylmethyl)phenyl)imidazo[1,2-c]pyrimidine-2-carbonitrile]"
≤ 250,< 100,100 to 500,"N#Cc1cn2c(NCc3c(F)ccc4c3CCO4)ncc(-c3ccc(CN4CCOCC4)cc3)c2n1 [Example 75, 5-(((5-fluoro-2,3-dihydrobenzofuran-4-yl)methyl)amino)-8-(4-(morpholinomethyl)phenyl)imidazo[1,2-c]pyrimidine-2-carbonitrile]"
≤ 250,< 100,≤ 100,"Cc1cc(C(=O)N(C)C)ncc1-c1cnc(NCc2c(F)ccc3c2CCO3)n2cc(C#N)nc12 [Example 76, 5-(2-cyano-5-(((5-fluoro-2,3-dihydrobenzofuran-4-yl)methyl)amino)imidazo[1,2-c]pyrimidin-8-yl)-N,N,4-trimethylpicolinamide]"
250 to 500,100 to 500,> 500,"N#Cc1cn2c(NCc3c(F)ccc4c3CCO4)ncc(-c3ccc(S(=O)(=O)C(F)(F)F)cc3)c2n1 [Example 82, 5-(((5-fluoro-2,3-dihydrobenzofuran-4-yl)methyl)amino)-8-(4-((trifluoromethyl)sulfonyl)phenyl)imidazo[1,2-c]pyrimidine-2-carbonitrile]"
≤ 250,< 100,≤ 100,"Cc1cc(-c2cnc(NCc3c(F)ccc4c3CCO4)n3cc(C#N)nc23)n(C)n1 [Example 86, 8-(1,3-dimethyl-1H-pyrazol-5-yl)-5-(((5-fluoro-2,3-dihydrobenzofuran-4-yl)methyl)amino)imidazo[1,2-c]pyrimidine-2-carbonitrile]"
≤ 250,< 100,100 to 500,"Cc1ncccc1-c1cnc(NCc2c(F)ccc3c2CCO3)n2cc(C(N)=O)nc12 [Example 137, 5-(((5-fluoro-2,3-dihydrobenzofuran-4-yl)methyl)amino)-8-(2-methylpyridin-3-yl)imidazo[1,2-c]pyrimidine-2-carboxamide]"
≤ 250,100 to 500,100 to 500,"Cc1nc(CN(C)C)ccc1-c1cnc(NCc2c(F)ccc3c2CCO3)n2cc(C#N)nc12 [Example 152, 8-(6-((dimethylamino)methyl)-2-methylpyridin-3-yl)-5-(((5-fluoro-2,3-dihydrobenzofuran-4-yl)methyl)amino)imidazo[1,2-c]pyrimidine-2-carbonitrile]"
